The values that follow come from patent US8404690B2, “Piperazine-2-carboxamide derivatives” (Merck Serono SA, priority 2003, dated 2013).

Data set [1] has as its target T1, human Prostaglandin F2α receptor (hFP) (Homo sapiens, UniProt P43088).
T1 construct: expressed in transfected cells; host or cells: 293-EBNA cells
Briefly: In vitro functional assay 1: inhibition of Prostaglandin F2α induced IP3 synthesis in HEK/EBNA cells. Format: cell-based. Conditions: tested on human Prostaglandin F2α; 30 nM PGF2α stimulation; read-out: EC50 value, antagonism of Prostaglandin F2α-induced IP3-synthesis. From the text: 1) In Vitro Functional Assay 1: Inhibition of Prostaglandin F2α Induced IP3 (Inositol Triphosphate) Synthesis in HEK/EBNA-Cells Expressing the Prostaglandin F2α Receptor
The interaction of Prostaglandin F2α with its receptor leads to IP3 synthesis, a second messenger for Ca^2+ release from sarcoplasmatic reticulum, involved in the process triggering uterine contractions. The present assay described hereinafter can be used to show the inhibition of the Prostaglandin F2α/Prostaglandin F2α receptor mediated IP3 synthesis by test compounds of formula (I).
293-EBNA cells and pCEP4 vector were purchased from Invitrogen; Fetal Bovine Serum from Cansera; Hygromycin B from Roche Molecular Biochemicals; DMEM-F12 medium, L-Glutamine from Life Technologies Inc.; [^3H] Inositol from Perkin Elmer Life Sciences; Prostaglandin F2α (PGF2α) from Sigma, AG1-X8 chromatography columns from BioRad, 96 well black/white plates from Corning Inc. […]
In the course of the three above mentioned experiments, the reaction was stopped by addition of 1 ml of stop solution (2.4% perchloric acid) for 10 min. […] The IP3 to be quantified were eluted with 3 ml elution buffer (1M ammonium formate, 0.1 M formic acid) and radioactivity was counted on a Beckman LS6000TA scintillation counter to measure the amount of phosphorylated [^3H] inositol.

For data set [2], the system named is Spontaneous uterine contractions in late-term pregnant rats. Put plainly: In vivo assay: reduction of spontaneous uterine contractions in late-term pregnant rats. Further details: species or system rat. Conditions: i.v. route (infusion over 10 minutes), dose of 3 mg/kg/min, anesthetised late-term pregnant Sprague Dawley rats, AUC of intra-luminal uterine pressure vs basal. From the text: 3) In Vivo Assay: Reduction of Uterine Contractile Activity in Rats
Spontaneous Uterine Contractions in Late-Term Pregnant Rats:
Late-term pregnant (19-21 days of gestation) Sprague Dawley female rats (Charles River, Calco, Italy) weighing 350-400 g were anesthetised with urethane (1.05 g/kg, i.p.) and placed on a homeothermic operating table. The trachea was isolated and cannulated with a suitable polyethylene (PE) tubing. A midline incision at the hypogastrium level was made, one pregnant uterine horn exposed and its tubal end closed (near the ovary) by a ligature with surgical silk. […]
The spontaneous contractile response of the uterus was quantified by evaluating the area under the curve (AUC) of the changes in the intra-luminal uterine pressure over time (by Chart V4.04 for Windows software, PowerLab AD Instruments, Castle Hill, Australia). The effect of the test compound on the spontaneous uterine contraction was evaluated as the percent variation of the AUC calculated in a 10-min interval following the administration of each dose of test compound as compared to the AUC in a 10-min interval before the administration of the first dose of test compound (basal value). When possible, a dose-response curve (of peak effect) was plotted and the relative ED50 value calculated (by S-Plus 2000 v. 4.6 statistical software, Mathsoft, Inc. Seattle, Wash., USA).

Data set [3] has as its target T2, human Prostaglandin F2α receptor (Homo sapiens, UniProt P43088). Put plainly: In vitro competition binding assay with Scintillation Proximity Assay (SPA). Further details: Human Prostaglandin F2α receptor (full-length cDNA) was subcloned into the pCEP4 (Invitrogen) vector; expressed in transfected cells; host or cells: HEK 293 EBNA cells (membrane preparation). The following applies: Prostaglandin F2α as radioligand, membranes of HEK 293 EBNA cells, read-out: Binding affinity for human Prostaglandin F2α receptor Ki. From the text: In vitro competition binding assay with Scintillating Proximity Assay (SPA) (see Pharmaceutical Manufacturing International, 1992, p. 49-53 by Cook, N. D. et al)
This assay allows to determine the binding affinity of the test compounds of formula (II) for the human Prostaglandin F2α receptor
Human Prostaglandin F2α receptor (full-length cDNA) was subcloned into the pCEP4 (Invitrogen) vector and transfected together with the hygromycin resistance gene into HEK 293 EBNA cells by Calcium-phosphate co-precipitation method. Antibiotic resistant cells were grown under constant selection pressure in DMEM/F-12 medium supplemented with 2% fetal calf serum, 4 mM L-Glutamine and 8 ml/l Insulin-Transferrin-Selenium-mix (all Invitrogen) and 300 μg/ml hygromycin at 37° C. in a humidified atmosphere of 5% CO2 in air. At 48 h before harvesting, receptor expression was enhanced by adding 5 mM of Na-butyrate. Cells were washed twice with phosphate buffer saline, harvested and pelleted by centrifugation.
Cell pellet was lysed by Dounce homogenisation in 250 mM sucrose, 25 mM Tris-HCl pH 7.5, 10 mM MgCl2, 1 mM EDTA containing proteases inhibitors according to the manufacturer (Boehringer Mannheim) at 4° C. The lysate was centrifuged at 1000 g, 4° C. for 10 min and the supernatant was centrifuged at 160000 g, 4° C. for 60 min. […]
In vitro competition binding with Scintillation proximity assay (SPA) was performed in Corning NBS 96 wells plates. Briefly, 100 μl of binding buffer containing 15 to 30 μg of purified membranes, 4 mg/ml of wheat-germ agglutinin (WGA) SPA beads and 1 to 2 nM of ^3H PGF2-alpha (determined by Scatchard analysis) in 1% DMSO was incubated for 2 hours at room temperature. Non-specific binding was determined in the presence of 1 μM of non-radioactive Prostaglandin F2α. […] The radioactivity was counted on a Microbeta plate counter and the binding data were analysed using the iterative, non-linear, curve-fitting program, “Prism” (GraphPad Software, Inc).
In general terms: In a scintillation proximity assay essentially only radioactivity close to the scintillant gives light.

The target in data set [4] is T2, human Prostaglandin F2α receptor. Put plainly: In vitro functional assay 2: inhibition of Prostaglandin F2α induced Ca2+-mobilization in HEK EBNA cells (FLIPR). Conditions: HEK EBNA cells expressing the human Prostaglandin F2α receptor. Further details: expressed in transfected cells; host or cells: HEK EBNA cells. Format: cell-based. The protocol:
2) In Vitro Functional Assay 2: Inhibition of Prostaglandin F2α Induced Ca^2+-Mobilization in HEK/EBNA-Cell Expressing the Prostaglandin F2α Receptor, as Measured by FLIPR® (Fluorimetric Imaging Plate Reader).
HEK EBNA cells were seeded at 60000 cells/well in a Poly-L-Lysine precoated black/white bottom 96 well plate. 24 hours later cells were loaded with […] Fluo-4 in DMEM-F12 without fetal calf serum for 1-2 hours at 37° C. For Prostaglandin F2α dose response or agonist activity measurement of compounds—after a wash with FLIPR buffer (10 mM Hepes, 145 mM NaCl, 5 mM KCl, 1 mM MgCl2, 10 mM glucose, pH 7.4)—cells were stimulated with increasing concentration of Prostaglandin F2α or test compounds of formulae (I), (II) and (III).
Calcium mobilisation was then measured on the FLIPR for 4 min. For IC50 determination of the molecules, increasing concentrations of test compounds were added to the cells 30 min prior to the washing step. After the wash with FLIPR buffer, increasing concentrations of test compounds were added to the cells in FLIPR buffer and calcium mobilisation was measured for 1 min. Then the cells were stimulated with a concentration of 2 times the EC50 of Prostaglandin F2α and calcium mobilisation was measured for 4 min.

T2 sequence (P43088 whole entry): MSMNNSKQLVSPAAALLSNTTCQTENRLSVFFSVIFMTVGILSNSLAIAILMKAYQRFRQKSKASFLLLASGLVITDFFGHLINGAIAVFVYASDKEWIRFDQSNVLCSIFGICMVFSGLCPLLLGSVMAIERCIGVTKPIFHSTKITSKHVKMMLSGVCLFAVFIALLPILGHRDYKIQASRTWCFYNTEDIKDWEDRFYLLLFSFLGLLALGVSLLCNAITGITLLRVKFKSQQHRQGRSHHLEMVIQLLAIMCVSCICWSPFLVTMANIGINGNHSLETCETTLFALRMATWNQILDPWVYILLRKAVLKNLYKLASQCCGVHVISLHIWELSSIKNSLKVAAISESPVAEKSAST
T1 sequence (P43088 whole entry): as above

As for `C=CCNC(=O)[C@@H]1CN(S(=O)(=O)c2ccc(C(C)(C)C)cc2)CCN1S(=O)(=O)c1cccc2cccnc12` [Example 8, (2S)-4-[(4-tert-butylphenyl)sulfonyl]-N-Drop-2-enyl-1-(quinolin-8-ylsulfonyl)piperazine-2-carboxamide], the EC50 in data set [1] was 24 nM.
For the molecule `C=CCNC(=O)c1cc(C(C)(C)C)ccc1S(=O)(=O)c1cccc2cccnc12` [[5-(tert-butyl)-2-(8-quinolylsulfonyl)phenyl]-N-prop-2-enylcarboxamide], the “inhibition of uterine contractions” value in data set [2] is on record as 56.1%.
On to `C=CCNC(=O)[C@@H]1CN(S(=O)(=O)c2ccc(C(C)(C)C)cc2)CCN1S(=O)(=O)c1cccc2cccnc12` [drawing 66, (2S)-4-[(4-tert-butylphenyl)-sulfonyl]-N-prop-2-enyl-1-(quinolin-8-yl-sulfonyl)piperazine-2-carboxamide], for which the Ki in data set [3] turned out to be 125 nM.
On to `C=CCNC(=O)[C@H]1CN(S(=O)(=O)c2ccc(C(C)(C)C)cc2)CCN1S(=O)(=O)c1cccc2cccnc12.Cl`, for which the melting point fell in the range of 126 to 129 °C.
Regarding “(3S)-4-(3-chlorobenzoyl)-N˜1˜-(3,4-dichlorophenyl)-N˜3˜-[(1S)-2,3-dihydro-1H-inden-1-yl]piperazine-1,3-dicarboxamide [Example 21]”, in data set [3], the Ki was determined as 816 nM. For the same molecule, in data set [4], the midpoint of inhibition, the IC50, lay at 495 nM.
For `CN(CC(O)c1ccccc1)C(=O)[C@H]1CN(C(=O)Nc2ccc(Oc3ccccc3)cc2)CCN1S(=O)(=O)c1ccccc1` (stereo partly drawn) [Example 16, (3R)—N˜3˜-(2-hydroxy-2-phenylethyl)-N˜3˜-methyl-N˜1˜-(4-phenoxy-phenyl)-4-(phenylsulfonyl)piperazine-1,3-dicarboxamide], in that order: 1150 nM and 4750 nM.

By EC50 is commonly meant the midpoint of the concentration-response curve. The term Ki denotes a dissociation constant, usually derived from enzyme kinetics or from competition with a known ligand. The term melting point denotes the temperature, or range, at which the solid turns liquid. The IC50 is the point on the concentration scale where inhibition reaches its midpoint.
